# Assay results reported in patent US20180221295A1, “PHARMACEUTICAL COMPOSITION COMPRISING ELECTROHYDRODYNAMICALLY OBTAINED FIBRES, THE COMPOSITION HAVING IMPROVED RESIDENCE TIME ON THE APPLICATION SITE” (DERMTREAT APS, priority 2015, published 2018).
# Assays:
# [1] = in vivo; cited from earlier work
# [2] = in vivo; cited from earlier work; remark: listed apart in the source
# [3] = In vitro drug release testing of fibres in Green's cell culture medium (HPLC); assay type: physicochemical; details: 1.2x1.2 cm samples in 5 mL Green's cell culture medium, 37° C., 30, 60 and 120 minutes
# Method: Compositions: Same as in example 4.
# Composition of Green's cell culture medium - Dulbecco's Modified Eagle's Medium: Ham's F12 medium in a 3:1 (v/v) ratio supplemented with 10% (v/v) FCS • 0.1 μM cholera toxin • 10 ng/ml of epidermal growth factor (EGF) • 0.4 μg/ml hydrocortisone • 0.18 mM adenine • 5 μg/ml insulin • 5 μg/ml transferrin • 2 mM glutamine • 0.2 μM triiodothyronine • 0.625 μg/ml amphotericin B • 100 IU/ml penicillin • 100 μg/ml streptomycin
# Method of Analysis: • Samples of dimensions 1.2×1.2 cm were cut from each fibre composition and were placed in vials containing 5 mL of Green's cell culture medium. • All vials were incubated at 37° C. for 30, 60 and 120 minutes. • At those time points, 1.5 mL of cell culture media were removed from each vial • The concentration of clobetasol propionate released from the fibres was measured using high-performance liquid chromatography (HPLC).
smiles,measurement,setting,value
C[C@]12CCC(=O)C=C1CC[C@@H]1[C@@H]2[C@@H](O)C[C@@]2(C)[C@H]1CC[C@]2(O)C(=O)CO [Hydrocortisone],Absorption from the gut,[1],no significant absorption from the gut
C/C=C(/C)C(=O)O[C@H]1C(C)=C[C@]23C(=O)[C@@H](C=C(CO)[C@@H](O)[C@]12O)[C@H]1[C@@H](C[C@H]3C)C1(C)C [Ingenol mebutate],Absorption through the skin,[2],practically not absorbed through the skin
CCC(=O)O[C@]1(C(=O)CCl)[C@@H](C)C[C@H]2[C@@H]3CCC4=CC(=O)C=C[C@]4(C)[C@@]3(F)[C@@H](O)C[C@@]21C [clobetasol propionate],Release of clobetasol propionate from electrospun fibres,[3],released after immersion in cell culture media
